In publication PMC4594923, “Food Polyphenols Fail to Cause a Biologically Relevant Reduction of COX-2 Activity” (PLoS ONE, 2015):
Marks after values point to notes of the source that are not given here.

Tests used:
[1] = test system: arachidonic acid (AA) cascade; assay: plasma oxylipin/PG levels in LPS induced sepsis in mice; format: in vivo, C57BL/6N mice;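 further: male C57BL/6N mice given LPS, plasma oxylipins quantified by LC-MS after solid-phase extraction, pretreatment or vehicle given intraperitoneally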
[2] = test system: arachidonic acid (AA) cascade; assay: kidney tissue oxylipin/PG levels in LPS induced sepsis in mice; conditions: kidney tissue 24 h after LPS treatment, LPS +, mean;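 further: male C57BL/6N mice challenged with LPS, kidney taken 24 h later, oxylipins quantified by LC-MS after solid-phase extraction of tissue homogenate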
[3] = mice, compound i. p. 100 mg/kg bw 2 h before LPS, 24 h after LPS, vs. LPS group
[4] = plasma 24 h after LPS treatment, LPS +, mean

In the case of `O=c1cc(-c2ccc(O)cc2)oc2cc(O)cc(O)c12` [Apigenin, apigenin], the “plasma epoxy- and dihydroxy-fatty acid (FA) metabolites of the CYP pathway” value [1, 3] is reported as “reduced”, the “sum of DiHETrEs in plasma” value [1, 3] is reported as “decrease” and the “sum of linoleic acid (LA) derived epoxy-metabolites in plasma” value [1, 3] is reported as “decrease”. For the same compound, the “1a,1b-dihomo-PGF2α concentration in plasma” value [1, 4] was 0.27 nM, the “4,5-DiHDPE concentration in plasma” value [1, 4] was 7.8 nM and the “4-HDHA concentration in plasma” value [1, 4] was 1.3 nM. For the same compound, the “5(6)-EpETrE concentration in plasma” value [1, 4] was 6.8 nM, the “5,6-DiHETrE concentration in plasma” value [1, 4] was 0.62 nM and the “5-HEPE concentration in plasma” value [1, 4] was 0.27 nM. The “5-HETE concentration in plasma” value [1, 4] was 2.4 nM, the “5-iPF2α concentration in plasma” value [1, 4] was less than 0.50 nM and the “5-oxo-ETE concentration in plasma” value [1, 4] was less than 1.0 nM. The “6-keto-PGF1α concentration in plasma” value [1, 4] was 2.1 nM, the “7,8-DiHDPE concentration in plasma” value [1, 4] was 0.64 nM and the “7-HDHA concentration in plasma” value [1, 4] was 0.47 nM. For the same compound, the “8(9)-EpETrE concentration in plasma” value [1, 4] was 1.5 nM, the “8,9-DiHETrE concentration in plasma” value [1, 4] was 1.4 nM and the “8-HDHA concentration in plasma” value [1, 4] was 3.0 nM. The “8-HETE concentration in plasma” value [1, 4] was 3.1 nM, the “8-iPF2a concentration in plasma” value [1, 4] was 0.19 nM and the “9(10)-EpODE concentration in plasma” value [1, 4] was 2.2^* nM. For the same compound, the “9(10)-EpOME concentration in plasma” value [1, 4] was 24^* nM, the “9(10)-Epoxystearic acid concentration in plasma” value [1, 4] was 18 nM and the “9,10,13-TriHOME concentration in plasma” value [1, 4] was 3.3 nM. For the same compound, the “9,10-DiHODE concentration in plasma” value [1, 4] was 4.0 nM, the “9,10-DiHOME concentration in plasma” value [1, 4] was 34 nM and the “9,10-Dihydroxystearic acid concentration in plasma” value [1, 4] was 47^‡ nM. The “9,12,13-TriHOME concentration in plasma” value [1, 4] was 38 nM, the “9-HODE concentration in plasma” value [1, 4] was 83 nM and the “9-HOTrE concentration in plasma” value [1, 4] was 6.1 nM. The “9-oxo-ODE concentration in plasma” value [1, 4] was 16 nM, the “10(11)-EpDPE concentration in plasma” value [1, 4] was 1.7 nM and the “10,11-DiHDPE concentration in plasma” value [1, 4] was 0.58^* nM. For the same compound, the “10-HDHA concentration in plasma” value [1, 4] was 3.0 nM, the “11(12)-EpETrE concentration in plasma” value [1, 4] was 2.0 nM and the “11,12-DiHETE concentration in plasma” value [1, 4] was less than 0.13 nM. The “11,12-DiHETrE concentration in plasma” value [1, 4] was 1.1^* nM, the “11-HDHA concentration in plasma” value [1, 4] was 0.67 nM and the “11-HETE concentration in plasma” value [1, 4] was 1.8 nM. For the same compound, the “12(13)-EpODE concentration in plasma” value [1, 4] was 1.8 nM, the “12(13)-EpOME concentration in plasma” value [1, 4] was 29^* nM and the “12,13-DiHODE concentration in plasma” value [1, 4] was 4.5 nM. The “12,13-DiHOME concentration in plasma” value [1, 4] was 114 nM, the “12-HEPE concentration in plasma” value [1, 4] was 25 nM and the “12-HETE concentration in plasma” value [1, 4] was 260 nM. The “13(14)-EpDPE concentration in plasma” value [1, 4] was 1.2 nM, the “13,14-DiHDPE concentration in plasma” value [1, 4] was 0.58^* nM and the “13,14-dihydro-15-keto-PGE1 concentration in plasma” value [1, 4] was 0.14 nM. The “13,14dihydro-15-keto-PGF2α concentration in plasma” value [1, 4] was 0.41 nM, the “13-HDHA concentration in plasma” value [1, 4] was 0.98 nM and the “13-HODE concentration in plasma” value [1, 4] was 110^* nM. For the same compound, the “13-HOTrE concentration in plasma” value [1, 4] was 5.7 nM, the “13-oxo-ODE concentration in plasma” value [1, 4] was 2.5 nM and the “14(15)-EpETE concentration in plasma” value [1, 4] was 0.14^† nM. For the same compound, the “14(15)-EpETrE concentration in plasma” value [1, 4] was 1.5^* nM, the “14,15-DiHETE concentration in plasma” value [1, 4] was 0.19^† nM and the “14,15-DiHETrE concentration in plasma” value [1, 4] was 2.2 nM. For the same compound, the “14-HDHA concentration in plasma” value [1, 4] was 71 nM, the “15(16)-EpODE concentration in plasma” value [1, 4] was 1.2 nM and the “15(S)-HETrE concentration in plasma” value [1, 4] was 0.94 nM. For the same compound, the “15,16-DiHODE concentration in plasma” value [1, 4] was 24 nM, the “15-HETE concentration in plasma” value [1, 4] was 2.5 nM and the “15-oxo-ETE concentration in plasma” value [1, 4] was 0.29 nM. The “16(17)-EpDPE concentration in plasma” value [1, 4] was 1.2 nM, the “16,17-DiHDPE concentration in plasma” value [1, 4] was 1.2^* nM and the “16-HDHA concentration in plasma” value [1, 4] was 1.0 nM. For the same compound, the “17(18)-EpETE concentration in plasma” value [1, 4] was 0.68^* nM, the “17,18-DiHETE concentration in plasma” value [1, 4] was 1.2^* nM and the “17-HDHA concentration in plasma” value [1, 4] was 5.2 nM. The “18-HEPE concentration in plasma” value [1, 4] was 0.26 nM, the “19(20)-EpDPE concentration in plasma” value [1, 4] was 9.4 nM and the “19,20-DiHDPE concentration in plasma” value [1, 4] was 11 nM. The “20-HDHA concentration in plasma” value [1, 4] was 2.2 nM, the “20-HEPE concentration in plasma” value [1, 4] was 1.7^* nM and the “20-HETE concentration in plasma” value [1, 4] was 1.6 nM. The “EKODE concentration in plasma” value [1, 4] was 7.0 nM, the “PGD2 concentration in plasma” value [1, 4] was less than 0.50 nM and the “PGE2 concentration in plasma” value [1, 4] was 1.3 nM. For the same compound, the “PGF1α concentration in plasma” value [1, 4] was 0.10 nM, the “PGF2α concentration in plasma” value [1, 4] was 0.42 nM and the “TXB2 concentration in plasma” value [1, 4] was 1.1 nM. The “1a,1b-dihomo-PGF2α” value [2] was 1.3 nM, the “4,5-DiHDPE” value [2] was 15 nM and the 4-HDHA [2] was 19 nM. The “5(6)-EpETrE” value [2] was 130^* nM, the “5,6-DiHETrE” value [2] was 1.6^* nM and the 5-HEPE [2] was 1.0 nM. The 5-HETE [2] was 12 nM, the 5-oxo-ETE [2] was 28 nM and the 6-keto-PGF1α [2] was 55 nM. The “7,8-DiHDPE” value [2] was 1.6 nM, the 7-HDHA [2] was 3.5 nM and the “8(9)-EpETrE” value [2] was 32^† nM. For the same compound, the “8,9-DiHETrE” value [2] was 1.6 nM, the 8-HDHA [2] was 20^† nM and the 8-HETE [2] was 3.4 nM. For the same compound, the 8-iPF2a [2] was 1.8 nM, the “9(10)-EpODE” value [2] was 13 nM and the “9(10)-EpOME” value [2] was 150 nM. The “9(10)-Epoxystearic acid” value [2] was 77^* nM, the “9,10,13-TriHOME” value [2] was 4.8 nM and the “9,10-DiHODE” value [2] was 1.1 nM. For the same compound, the “9,10-DiHOME” value [2] was 15^† nM, the “9,10-Dihydroxystearic acid” value [2] was 57 nM and the “9,12,13-TriHOME” value [2] was 27 nM. For the same compound, the 9-HETE [2] was 3.5 nM, the 9-HODE [2] was 150 nM and the 9-HOTrE [2] was 3.2 nM. For the same compound, the 9-oxo-ODE [2] was 46 nM, the “10(11)-EpDPE” value [2] was 82^‡ nM and the “10,11-DiHDPE” value [2] was 1.9 nM. For the same compound, the 10-HDHA [2] was 3.6 nM, the “11(12)-EpETE” value [2] was 4.4 nM and the “11(12)-EpETrE” value [2] was 80^† nM. The “11,12-DiHETrE” value [2] was 2.1 nM, the 11-HDHA [2] was 5.7 nM and the 11-HETE [2] was 16 nM. For the same compound, the “12(13)-EpODE” value [2] was 6.0 nM, the “12(13)-EpOME” value [2] was 110 nM and the “12,13-DiHOME” value [2] was 32^* nM. The 12-HEPE [2] was 1.1 nM, the 12-HETE [2] was 10 nM and the “13(14)-EpDPE” value [2] was 65^† nM. For the same compound, the “13,14-DiHDPE” value [2] was 3.0 nM, the “13,14-dihydro-15-keto-PGF2α” value [2] was 2.7 nM and the 13-HDHA [2] was 6.9 nM. It also gave a 13-HODE [2] of 120 nM, a 13-HOTrE [2] of 3.3 nM and a 13-oxo-ODE [2] of 8.5 nM. For the same compound, the “14(15)-EpETE” value [2] was 5.4^‡ nM, the “14(15)-EpETrE” value [2] was 60^† nM and the “14,15-DiHETE” value [2] was 0.7 nM. For the same compound, the “14,15-DiHETrE” value [2] was 5.9 nM, the 14-HDHA [2] was 8.6 nM and the “15(16)-EpODE” value [2] was 65 nM. For the same compound, the “15(S)-HETrE” value [2] was 4.6 nM, the “15,16-DiHODE” value [2] was 13 nM and the 15-HETE [2] was 22 nM. For the same compound, the 15-oxo-ETE [2] was 8.2 nM, the “16(17)-EpDPE” value [2] was 61^‡ nM and the “16,17-DiHDPE” value [2] was 8.2 nM. For the same compound, the 16-HDHA [2] was 6.3 nM, the “17(18)-EpETE” value [2] was 6.2^‡ nM and the “17,18-DiHETE” value [2] was 2.7 nM. The 17-HDHA [2] was 17 nM, the 18-HEPE [2] was 1.5 nM and the “19(20)-EpDPE” value [2] was 92^‡ nM. The “19,20-DiHDPE” value [2] was 59 nM, the 20-HDHA [2] was 18 nM and the 20-HEPE [2] was 5.2 nM. It also gave an EKODE [2] of 40 nM, a PGD2 [2] of 13 nM and a PGE1 [2] of 4.7 nM. For the same compound, the PGE2 [2] was 110 nM, the PGF1α [2] was 2.8 nM and the PGF2α [2] was 33 nM. The TXB2 [2] was 2.0 nM, the “5,6-DiHETE” value ([2]; < = below LOQ) was less than 0.25 nM and the 5-iPF2α ([2]; < = below LOQ) was less than 1.0 nM. The “8(9)-EpETE” value ([2]; < = below LOQ) was 2.9^† nM, the “12,13-DiHODE” value ([2]; < = below LOQ) was less than 2.0 nM and the “13,14-dihydro-15-keto-PGE1” value ([2]; < = below LOQ) was 0.41 nM. For the same compound, the 20-HETE ([2]; < = below LOQ) was less than 2.7 nM, the PGD1 ([2]; < = below LOQ) was less than 0.50 nM and the PGF2α ([2]; second listing of PGF2α (r9)) was 33 nM.
